Test results: US11077210B2, “Near-infrared fluorescent contrast bioimaging agents and methods of use thereof” (Beth Israel Deaconess Medical Center, priority 2013, dated 2021)

Legend:
Format in all cases: in vivo
spinal cartilage = assay: Cartilage NIR fluorescence imaging (FLARE); details: 35 kg female pig, 5 μmol intravenously, 4 hours, Channel 1 (700 nm) or Channel 2 (800 nm)
Protocol: (§1) Absorbance and fluorescence emission spectra were measured using fiber optic HR2000 absorbance (200-1100 nm) and USB2000FL fluorescence (350-1000 nm) spectrometers (Ocean Optics, Dunedin, Fla.). Excitation was provided by a 532 nm green laser pointer (Opcom Inc., Xiamen, China) set to 5 mW, a 655 nm red laser pointer (Opcom Inc., Xiamen, China) set to 5 mW, or a 770 nm NIR laser diode light source (Electro Optical Components, Santa Rosa, Calif.) set to 10 mW and coupled through a 300 μm core diameter, NA 0.22 fiber (Fiberguide Industries, Stirling, N.J.). In silico calculations of the partition coefficient (log D at pH 7.4) and surface molecular charge and hydrophobicity were calculated using MarvinSketch 5.2.1 by taking major microspecies at pH 7.4 (ChemAxon, Budapest, Hungary). NIR Fluorescence Imaging System The dual-NIR channel FLARE′ imaging system has been described in detail previously (26-28). […] Color and two independent NIR fluorescence emission images (≈700 nm for Channel 1 and ≈800 nm for Channel 2) were acquired simultaneously with custom software at rates up to 15 Hz over a 15 cm diameter field of view. NIR fluorescence from Channel 1 was pseudo-colored in red and NIR fluorescence from Channel 2 was pseudo-colored in lime green prior to merger with the color video image. […] Animal Models and Intraoperative NIR Fluorescence Imaging […]

bone (rib cage) = assay: Bone NIR fluorescence imaging (FLARE); details: 35 kg female pig, 5 μmol intravenously, 4 hours, Channel 1 (700 nm) or Channel 2 (800 nm)
Protocol: as §1

brain vasculature = assay: Brain vasculature NIR fluorescence imaging (FLARE); details: 25 g male mouse, 25 nmol intravenously, 4 hours; Channel 1 (700 nm)
Protocol: as §1

[1] = system: neuroendocrine tumors (insulinoma); assay: Neuroendocrine tumor NIR fluorescence imaging (FLARE); details: 25 g male insulinoma-bearing mouse, 140 nmol intravenously, 1 hour, pancreas imaged; Channel 1 (700 nm) or Channel 2 (800 nm)
Protocol: as §1

CSF = CSF NIR fluorescence imaging (FLARE); details: 35 kg female pig, 5 μmol intravenously, 4 hours; Channel 1 (700 nm) or Channel 2 (800 nm)
Protocol: as §1

SLN = assay: Sentinel lymph node (SLN) NIR fluorescence imaging (FLARE); details: 35 kg female pig, 5 nmol subcutaneously into bowel, 5 min; Channel 1 (700 nm) or Channel 2 (800 nm)
Protocol: as §1

ovaries = assay: Ovary NIR fluorescence imaging (FLARE); details: 25 g female mouse, 25 nmol intravenously, 4 hours; Channel 1 (700 nm) or Channel 2 (800 nm)
Protocol: as §1

prostate = assay: Prostate NIR fluorescence imaging (FLARE); details: 25 g male mouse, 25 nmol intravenously, 4 hours; Channel 1 (700 nm) or Channel 2 (800 nm)
Protocol: as §1

gallbladder = assay: Gallbladder NIR fluorescence imaging (FLARE); details: 25 g male mouse, 25 nmol intravenously, 4 hours; Channel 1 (700 nm) or Channel 2 (800 nm)
Protocol: as §1

Peyer's patches = Peyer's patches NIR fluorescence imaging (FLARE); details: 250 g male rat, 100 nmol intravenously, 4 hours; Channel 2 (800 nm)
Protocol: as §1

pan lymph nodes = assay: Pan lymph node NIR fluorescence imaging (FLARE); details: 250 g male rat, 20 nmol intravenously, 4 hours; Channel 1 (700 nm) or Channel 2 (800 nm)
Protocol: as §1

CC1(C)C(/C=C/C2=C(Sc3ccc(CCN)cc3)C(=C/C=C3/N(CCC[N+](C)(C)C)c4ccc(S(=O)(=O)O)cc4C3(C)C)/CCC2)=[N+](CCC[N+](C)(C)C)c2ccc(S(=O)(=O)O)cc21 [LN50]
NIR fluorescence contrast of the cartilage (spinal cartilage): highlighted with high contrast

CC1(C)C(/C=C/C(C/C=C2/N(CCCP(=O)(O)O)c3ccc(S(=O)(=O)[O-])cc3C2(C)C)c2ccc(CCC(=O)O)cc2)=[N+](CCCP(=O)(O)O)c2ccc(S(=O)(=O)O)cc21 (centres unmarked) [P700SO3]
NIR fluorescence contrast of the bone (bone (rib cage)): highlighted with high contrast

CNCCCN1/C(=C/C=C/C=C/c2sc3cc(O)ccc3[n+]2CCCNC)Sc2cc(O)ccc21 [ZK214]
NIR fluorescence contrast of the brain vasculature (brain vasculature): highlighted with high contrast

CN1/C(=C/C=C/C=C/C=C/C2=[N+](C)c3ccccc3C2(C)C)C(C)(C)c2ccccc21 [AL20]
NIR fluorescence contrast of the tumors [1]: highlighted with high contrast
NIR fluorescence contrast of the CSF (CSF): highlighted with high contrast

CN(C)c1ccc2nc3ccc(=[N+](C)C)cc-3oc2c1 [ESS61]
NIR fluorescence contrast of the tumors [1]: highlighted with high contrast

CCN1/C(=C/C=C/C=C/C2=[N+](CC)c3ccc4ccccc4c3C2(C)C)C(C)(C)c2c1ccc1ccccc21 [MHI86]
NIR fluorescence contrast of the SLN (SLN): highlighted with high contrast

CCN(CC)c1ccc(/C=C/C2=CC(/C=C/c3ccc(N(CC)CC)cc3O)=[O+][B-](F)(F)O2)c(O)c1 [PS62]
NIR fluorescence contrast of the ovaries (ovaries): highlighted with high contrast
NIR fluorescence contrast of the prostate (prostate): highlighted with high contrast
NIR fluorescence contrast of the gallbladder (gallbladder): highlighted with high contrast

C[N+](C)(C)CCCN1/C(=C/C=C/C=C/c2sc3cc(O)ccc3[n+]2CCC[N+](C)(C)C)Sc2cc(O)ccc21 [SP56]
NIR fluorescence contrast of the cartilage (spinal cartilage): highlighted with high contrast

CC1(C)C(/C=C/C=C/C=C/C=C2/N(CCC[N+](C)(C)C)c3ccccc3C2(C)C)=[N+](CCC[N+](C)(C)C)c2ccccc21 [AL30]
NIR fluorescence contrast of the Peyer's patches (Peyer's patches): highlighted with high contrast

CC1(C)C(/C=C/C2=C(Oc3ccc(CCC(=O)O)cc3)C(=C/C=C3/N(CCC[N+](C)(C)C)c4ccccc4C3(C)C)/CCC2)=[N+](CCC[N+](C)(C)C)c2ccccc21 [MM25]
NIR fluorescence contrast of all lymph nodes (pan lymph nodes): highlighted with high contrast
NIR fluorescence contrast of the SLN (SLN): highlighted with high contrast
